# In US8138168B1 (Takeda Pharmaceutical Company Limited, priority 2007, dated 2012):
# pIC50: −log10 of the molar value.
# Target: T1, Recombinant human renin (Homo sapiens, UniProt P00797)
# T1 construct: isolate the active form (residues 67-406); made in house; host or cells: FreeStyle 293-F cells (transient expression of pcDNA3.1(+)/hREN)
# T1 sequence (P00797 67-406): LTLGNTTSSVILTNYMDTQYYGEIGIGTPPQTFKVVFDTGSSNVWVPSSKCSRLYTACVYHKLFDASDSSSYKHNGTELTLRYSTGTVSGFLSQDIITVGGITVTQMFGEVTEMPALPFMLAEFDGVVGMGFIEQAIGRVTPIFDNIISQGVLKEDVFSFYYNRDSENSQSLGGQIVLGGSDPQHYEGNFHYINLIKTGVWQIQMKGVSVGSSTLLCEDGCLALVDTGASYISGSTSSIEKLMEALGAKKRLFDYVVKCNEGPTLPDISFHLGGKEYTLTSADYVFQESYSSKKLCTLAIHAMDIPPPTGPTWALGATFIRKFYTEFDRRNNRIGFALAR
# Assay: In vitro enzymatic activity assay of renin inhibitors (fluorogenic peptide substrate)
# Assay type: biochemical
# Details: read-out: IC50 of Exemplified Compounds Against Renin
# Outline: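 Enzyme: recombinant human renin, 3 nM final, 10 min compound pre-incubation at 37 °C; buffer 50 mM Hepes pH 7.4 with 0.1 mg/mL BSA or extra 2% BSA; 5% DMSO.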
row,SMILES,pIC50
1,"CCOCCNC(=O)c1ccc(-c2ccc(C[C@@H](N)CC(=O)N3CCC[C@@H](c4nc5ccccc5n4CCCOC)C3)cc2)cc1 [Compound 178, 4′-((R)-2-amino-4-((R)-3-(1-(3-methoxypropyl)-1H-benzo[d]imidazol-2-yl)piperidin-1-yl)-4-oxobutyl)-N-(2-ethoxyethyl)biphenyl-4-carboxamide]",> 7.00
2,"COCCCn1c([C@@H]2CCCN(C(=O)C[C@H](N)Cc3ccc(-c4ccc5c(c4)OCC(=O)N5)cc3)C2)nc2c(C)cccc21 [Compound 497, 7-(4-((R)-2-amino-4-((R)-3-(1-(3-rnethoxypropyl)-4-methyl-1H-benzo[d]imidazol-2-yl)piperidin-1-yl)-4-oxobutyl)phenyl)-2H-benzo[b][1,4]oxazin-3(4H)-one]",> 7.00
3,"C[C@@H](N)C(=O)N1CCCC(c2nc3ccccc3[nH]2)C1 (stereo partly drawn) [Compound 50, (2R)-1-(3-(1H-benzo[d]imidazol-2-yl)piperidin-1-yl)-2-aminopropan-1-one]",< 6.00
4,"COCCCn1c([C@@H]2CCCN(C(=O)[C@@H]3CN(C(=O)Nc4cccc(OC)c4)C[C@H]3N)C2)nc2ccccc21 [Compound 367, (3S,4R)-3-amino-N-(3-methoxyphenyl)-4-((R)-3-(1-(3-methoxypropyl)-1H-benzo[d]imidazol-2-yl)piperidine-1-carbonyl)pyrrolidine-1-carboxamide]",6.00 to 7.00
5,"CC(=O)NCCn1c([C@@H]2CCCN(C(=O)C[C@H](N)Cc3ccc(-c4cnc(N)nc4)cc3)C2)nc2c(Cl)cccc21 [Compound 470, N-(2-(2-((R)-1-((R)-3-amino-4-(4-(2-aminopyrimidin-5-yl)phenyl)butanoyl)piperidin-3-yl)-4-chloro-1H-benzo[d]imidazol-1-yl)ethyl)acetamide]",6.00 to 7.00
6,"COCCCn1c([C@@H]2CCCN(C(=O)C[C@H](N)Cc3ccc(-c4ccc(N5CCNC5=O)cc4)cc3)C2)nc2ccccc21 [Compound 436, 1-(4′-((R)-2-amino-4-((R)-3-(1-(3-methoxypropyl)-1H-benzo[d]imidazol-2-yl)piperidin-1-yl)-4-oxobutyl)biphenyl-4-yl)imidazolidin-2-one]",> 7.00
7,"COCCCn1c([C@@H]2CCCN(C(=O)C[C@H](N)Cc3ccc(-c4ccc(C(=O)N5CCNC(=O)C5)cc4)cc3)C2)nc2ccccc21 [Compound 189, 4-(4′-((R)-2-amino-4-((R)-3-(1-(3-methoxypropyl)-1H-benzo[d]imidazol-2-yl)piperidin-1-yl)-4-oxobutyl)biphenylcarbonyl)piperazin-2-one]",> 7.00
8,"COCCCn1c([C@@H]2CCCN(C(=O)C[C@H](N)Cc3ccc(-n4c(=O)[nH]c5cc(C)c(C)cc54)cc3)C2)nc2ccccc21 [Compound 219, 1-(4-((R)-2-amino-4-((R)-3-(1-(3-methoxypropyl)-1H-benzo[d]imidazol-2-yl)piperidin-1-yl)-4-oxobutyl)phenyl)-5,6-dimethyl-1H-benzo[d]imidazol-2(3H)-one]",> 7.00
9,"COCCCn1c([C@@H]2CCCN(C(=O)C[C@H](N)Cc3ccc(-c4cccnc4)cc3)C2)nc2ccccc21 [Compound 125, (R)-3-amino-1-((R)-3-(1-(3-methoxypropyl)-1H-benzo[d]imidazol-2-yl)piperidin-1-yl)-4-(4-(pyridin-3-yl)phenyl)butan-1-one]",> 7.00
10,"COCCCn1c([C@@H]2CCCN(C(=O)C[C@H](N)Cc3ccc(-c4ccoc4)cc3)C2)nc2ccccc21 [Compound 145, (R)-3-amino-4-(4-(furan-3-yl)phenyl)-1-((R)-3-(1-(3-methoxypropyl)-1H-benzo[d]imidazol-2-yl)piperidin-1-yl)butan-1-one]",> 7.00
11,"COCCCn1c([C@@H]2CCCN(C(=O)[C@@H]3CN(S(=O)(=O)c4cc(OC)ccc4OC)C[C@H]3N)C2)nc2ccccc21 [Compound 413, ((3R,4S)-4-amino-1-(2,5-dimethoxyphenylsulfonyl)pyrrolidin-3-yl)((R)-3-(1-(3-methoxypropyl)-1H-benzo[d]imidazol-2-yl)piperidin-1-yl)methanone]",< 6.00
12,"COCCCn1c([C@@H]2CCCN(C(=O)C[C@H](N)Cc3ccc(-c4ccc(C(=O)NC5CC5)cc4)cc3)C2)nc2ccccc21 [Compound 134, 4′-((R)-2-amino-4-((R)-3-(1-(3-methoxypropyl)-1H-benzo[d]imidazol-2-yl)piperidin-1-yl)-4-oxobutyl)-N-cyclopropylbiphenyl-4-carboxamide]",> 7.00
13,"N[C@@H](CC(=O)N1CCCC(c2nc3ccccc3[nH]2)C1)Cc1cccc2ccccc12 (stereo partly drawn) [Compound 38, (3R)-1-(3-(1H-benzo[d]imidazol-2-yl)piperidin-1-yl)-3-amino-4-(naphthalen-1-yl)butan-1-one]",< 6.00
14,"COCCCn1c([C@@H]2CCCN(C(=O)C[C@H](N)c3cnccc3OC)C2)nc2ccccc21 [Compound 120, (S)-3-Amino-1((R)-3-(1-(3-methoxypropyl)-1H-benzo[d]imidazol-2-yl)piperidin-1-yl)-3-(4-methoxypyridin-3-yl)propan-1-one]",< 6.00
15,"COCCCn1c([C@@H]2CCCN(C(=O)C[C@H](N)Cc3ccc4ccccc4c3)C2)nc2ccc(C#N)cc21 [Compound 109, 2-((R)-1-((R)-3-amino-4-(naphthalen-2-yl)butanoyl)piperidin-3-yl)-1-(3-methoxypropyl)-1H-benzo[d]imidazole-6-carbonitrite]",6.00 to 7.00
16,"CC(=O)NCCn1c([C@@H]2CCCN(C(=O)C[C@H](N)Cc3ccc(-c4cnc(N)nc4)cc3)C2)nc2c(C)cccc21 [Compound 472, N-(2-(2-((R)-1-((R)-3-amino-4-(4-(2-aminopyrimidin-5-yl)phenyl)butanoyl)piperidin-3-yl)-4-methyl-1H-benzo[d]imidazol-1-yl)ethyl)acetamide]",6.00 to 7.00
17,"COCCCn1c([C@@H]2CCCN(C(=O)C[C@H](N)CNC(=O)Nc3cccc(Cl)c3)C2)nc2ccccc21 [Compound 256, 1-((S)-2-ainino-4-((R)-3-(1-(3-methoxypropyl)-1H-benzo[d]imidazol-2-yl)piperidin-1-yl)-4-oxobutyl)-3-(3-chlorophenyl)urea]",> 7.00
18,"COCCCn1c([C@@H]2CCCN(C(=O)C[C@H](N)Cc3ccc(-c4ccc(NC(=O)COC)cc4)cc3)C2)nc2ccccc21 [Compound 197, N-(4′-((R)-2-amino-4-((R)-3-(1-(3-methoxypropyl)-1H-benzo[d]imidazol-2-yl)piperidin-1-yl)-4-oxobutyl)biphenyl-4-yl)-2-methoxyacetamide]",> 7.00
19,"COCCCn1c([C@@H]2CCCN(C(=O)C[C@H](N)Cc3ccc4ccccc4c3)C2)nc2cccc(Cl)c21 [Compound 97, (R)-3-amino-1-((R)-3-(7-chloro-1-(3-methoxypropyl)-1H-benzo[d]imidazol-2-yl)piperidin-1-yl)-4-(naphthalen-2-yl)butan-1-one]",> 7.00
